The values that follow come from patent US20210317140A1, “Heterocyclic Compounds and Methods of Use” (MEDIVATION TECHNOLOGIES, INC, priority 2013, published 2021).

Structures are written as SMILES.

Assay [1] has as its target T1, PI3Kδ (Homo sapiens, UniProt O00329).
T1 construct: purchased Reaction Biology Corporation
The assay is described as follows: PI3Kδ kinase assay (HTRF, PIP3 detection). It counts as biochemical. As to conditions: for PI3Kδ @ 0.1 μM (% Inh): 0.1 μM compound; for PI3Kδ @ 0.1 μM (% Inh) / PI3Kδ @ 1 μM (% Inh): 10 μM ATP; for PI3Kδ @ 1 μM (% Inh): 1 μM compound; for IC50: 10 dose IC50, 10 μM ATP. The source says: (§1) Compounds of the invention were profiled in a 10 dose IC50 panel against BTK and PI3Kδ, both provided by Reaction Biology Corporation.
PI3Kδ assay: The PIP3 product is detected by displacement of biotin-PIP3 from an energy transfer complex consisting of Europium labeled anti-GST monoclonal antibody, a GST-tagged pleckstrin homology (PH) domain, biotinylated PIP3 and Streptavidin-Allophycocyanin (APC). […] The PIP3 product formed by PI 3-Kinase(h) activity displaces biotin-PIP3 from the complex resulting in a loss of energy transfer and thus a decrease in signal. This is a 3-step reaction: First, the kinase reaction with PIP2 substrate is carried out in the presence of ATP (10 μM), and the reaction is quenched with stop Solution, and then finally detect by adding Detection Mixture followed by incubation (10 min). Reaction procedure: 1) Prepare substrate in freshly prepared Reaction Buffer. 2) Deliver kinase into the substrate solution and gently mix. 3) Deliver compounds in 100% DMSO (1 μM) into the kinase reaction mixture by Acoustic technology (Echo550; nanoliter range), incubate for 10 min at RT. 4) Deliver ATP into the reaction mixture to initiate the reaction. 5) Incubate for 30 min at 30° C. 6) Quench the reaction with Stop Solution. 7) Add Detection Mixture, and incubate for overnight. […] The emission ratio is converted into μM PIP3 production based on PIP3 standard curves. The nonlinear regression to obtain the standard curve and IC50 values are performed using Graphpad Prism software. Assay Buffer: HEPES 50 mM (pH7.0), NaN3 0.02%, BSA 0.01%, Orthovanadate 0.1 mM, 1% DMSO. Detection buffer: HEPES 10 mM (pH7.0), BSA 0.02%, KF 0.16 M, EDTA 4 mM. Substrate: 10 μM PIP2 substrate (PI(4,5)P2).

Assay [2] has as its target T2, BTK (Homo sapiens, UniProt Q06187).
T2 construct: purchased Reaction Biology Corporation
Description: BTK kinase assay (HotSpot, 33P ATP). The assay is classed as biochemical. The note with it: for BTK @ 0.1 μM (% Inh): 0.1 μM compound; for BTK @ 0.1 μM (% Inh) / BTK @ 1 μM (% Inh): 10 μM ATP; for BTK @ 1 μM (% Inh): 1 μM compound; for IC50: 10 dose IC50, 10 μM ATP. On the procedure:
as §1
BTK assay: In vitro profiling protein kinases was performed using the “HotSpot” assay platform. Briefly, specific kinase/substrate pairs along with required cofactors were prepared in reaction buffer. Compounds were prepared as 10 mM stock solutions in DMSO. Compounds were delivered into the reaction, followed 15-20 minutes later by addition of a mixture of ATP (Sigma, St. Louis Mo.) and ^33P ATP (Perkin Elmer, Waltham Mass.) to a final concentration of 10 μM. […] IC50 values and curve fits were obtained using Prism (GraphPad Software). Buffer Conditions: 20 mM Hepes (pH 7.5), 10 mM MgCl2, 1 mM EGTA, 0.02% Brij35, 0.02 mg/mL BSA, 0.1 mM Na3VO4, 2 mM DTT, 1% DMSO.

T2 sequence (Q06187 whole entry): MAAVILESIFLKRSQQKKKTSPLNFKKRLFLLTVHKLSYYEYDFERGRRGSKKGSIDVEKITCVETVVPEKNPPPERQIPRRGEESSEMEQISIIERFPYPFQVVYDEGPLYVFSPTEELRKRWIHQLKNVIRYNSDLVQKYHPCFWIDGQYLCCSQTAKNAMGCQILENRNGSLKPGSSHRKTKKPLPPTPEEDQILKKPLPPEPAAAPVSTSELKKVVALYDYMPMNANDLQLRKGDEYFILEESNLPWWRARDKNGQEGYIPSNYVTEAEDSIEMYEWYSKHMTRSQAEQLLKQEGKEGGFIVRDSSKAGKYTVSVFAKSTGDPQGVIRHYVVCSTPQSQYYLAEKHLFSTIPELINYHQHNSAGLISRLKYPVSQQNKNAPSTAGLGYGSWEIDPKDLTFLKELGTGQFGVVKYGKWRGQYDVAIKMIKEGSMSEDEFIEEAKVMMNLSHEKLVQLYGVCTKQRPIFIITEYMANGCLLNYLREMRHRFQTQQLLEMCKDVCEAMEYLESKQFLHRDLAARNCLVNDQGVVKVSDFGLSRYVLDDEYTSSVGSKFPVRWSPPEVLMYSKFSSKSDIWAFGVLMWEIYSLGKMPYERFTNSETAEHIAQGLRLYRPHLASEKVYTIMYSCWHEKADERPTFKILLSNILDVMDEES
T1 sequence (O00329 whole entry): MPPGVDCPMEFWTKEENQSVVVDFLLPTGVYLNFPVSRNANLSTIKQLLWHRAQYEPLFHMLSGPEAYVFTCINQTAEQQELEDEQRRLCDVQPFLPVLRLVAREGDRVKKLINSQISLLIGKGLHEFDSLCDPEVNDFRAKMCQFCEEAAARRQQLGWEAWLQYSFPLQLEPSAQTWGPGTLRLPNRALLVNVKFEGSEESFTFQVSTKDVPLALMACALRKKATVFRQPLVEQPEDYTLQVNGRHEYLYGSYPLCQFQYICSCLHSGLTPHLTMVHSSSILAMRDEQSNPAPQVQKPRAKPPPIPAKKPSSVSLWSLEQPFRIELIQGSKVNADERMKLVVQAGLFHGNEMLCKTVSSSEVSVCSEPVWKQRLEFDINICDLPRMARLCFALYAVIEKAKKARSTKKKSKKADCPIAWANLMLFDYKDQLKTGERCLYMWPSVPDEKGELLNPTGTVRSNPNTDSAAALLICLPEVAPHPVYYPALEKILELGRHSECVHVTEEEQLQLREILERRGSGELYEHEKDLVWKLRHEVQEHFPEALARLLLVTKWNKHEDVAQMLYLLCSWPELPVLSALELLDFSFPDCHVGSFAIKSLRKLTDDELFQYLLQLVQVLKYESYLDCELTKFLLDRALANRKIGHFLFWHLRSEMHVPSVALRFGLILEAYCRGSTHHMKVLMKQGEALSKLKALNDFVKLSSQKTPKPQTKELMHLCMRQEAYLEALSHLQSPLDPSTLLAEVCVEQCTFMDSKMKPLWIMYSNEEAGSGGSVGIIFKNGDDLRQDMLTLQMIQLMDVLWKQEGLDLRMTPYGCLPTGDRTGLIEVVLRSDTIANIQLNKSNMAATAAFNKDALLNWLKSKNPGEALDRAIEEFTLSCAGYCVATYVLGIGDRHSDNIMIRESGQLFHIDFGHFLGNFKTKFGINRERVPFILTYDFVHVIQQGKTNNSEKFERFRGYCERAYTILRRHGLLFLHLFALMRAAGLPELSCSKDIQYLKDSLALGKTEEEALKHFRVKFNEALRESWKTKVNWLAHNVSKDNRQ
T1 sequence (P27986 whole entry partner): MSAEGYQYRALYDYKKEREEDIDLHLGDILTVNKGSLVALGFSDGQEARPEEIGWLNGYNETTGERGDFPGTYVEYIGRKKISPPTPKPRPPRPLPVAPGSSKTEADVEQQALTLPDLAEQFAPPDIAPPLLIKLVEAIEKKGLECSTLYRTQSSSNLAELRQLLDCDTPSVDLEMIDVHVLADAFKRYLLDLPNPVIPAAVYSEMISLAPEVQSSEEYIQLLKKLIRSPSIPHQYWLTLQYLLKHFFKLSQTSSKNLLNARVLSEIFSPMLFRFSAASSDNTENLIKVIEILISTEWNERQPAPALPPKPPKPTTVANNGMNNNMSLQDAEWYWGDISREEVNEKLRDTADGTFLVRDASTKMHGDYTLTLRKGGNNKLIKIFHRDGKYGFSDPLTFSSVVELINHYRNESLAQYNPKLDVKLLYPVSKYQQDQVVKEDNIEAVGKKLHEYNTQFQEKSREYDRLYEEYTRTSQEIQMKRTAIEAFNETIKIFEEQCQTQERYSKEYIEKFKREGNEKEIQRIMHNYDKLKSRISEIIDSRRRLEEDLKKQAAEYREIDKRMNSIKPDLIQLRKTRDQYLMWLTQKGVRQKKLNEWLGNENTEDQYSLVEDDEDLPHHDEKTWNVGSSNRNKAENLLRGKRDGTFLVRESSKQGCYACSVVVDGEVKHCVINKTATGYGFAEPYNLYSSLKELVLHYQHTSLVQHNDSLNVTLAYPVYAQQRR

The IC50 is the midpoint of a concentration-inhibition curve. High values mean a need for much substance, low ones inhibition by little substance. As to `Nc1ncnc2c1c(-c1ccccc1CO)nn2C1Cc2ccccc2C1` [Compound No. 53, {2-[4-amino-1-(2,3-dihydro-1H-inden-2-yl)-1H-pyrazolo[3,4-d]pyrimidin-3-yl]phenyl}methanol], in assay [1], the “PI3Kδ @ 0.1 μM (% Inh)” value came out at 30.15 % Inh; the “PI3Kδ @ 1 μM (% Inh)” value worked out at 81.32 % Inh; the midpoint of inhibition, the IC50, lay at 645 nM. Also, in assay [2], the “BTK @ 0.1 μM (% Inh)” value turned out to be 30.42 % Inh; the “BTK @ 1 μM (% Inh)” value was found to be 76.1 % Inh; the midpoint of inhibition, the IC50, lay at 575 nM.
Regarding `Nc1ncnc2c1c(-c1cccc(CO)c1)nn2C1Cc2ccccc2C1` [Compound No. 54, {3-[4-amino-1-(2,3-dihydro-1H-inden-2-yl)-1H-pyrazolo[3,4-d]pyrimidin-3-yl]phenyl}methanol], in assay [1], the “PI3Kδ @ 0.1 μM (% Inh)” value is given as 22.41 % Inh, the “PI3Kδ @ 1 μM (% Inh)” value is on record as 72.03 % Inh and the IC50 amounted to 924 nM. In assay [2], the “BTK @ 0.1 μM (% Inh)” value was 27.64 % Inh, the “BTK @ 1 μM (% Inh)” value was 72.19 % Inh and the IC50 stood at 840 nM.
Take `Nc1ncnc2c1c(-c1ccc(CO)cc1)nn2C1Cc2ccccc2C1` [Compound No. 55, {4-[4-amino-1-(2,3-dihydro-1H-inden-2-yl)-1H-pyrazolo[3,4-d]pyrimidin-3-yl]phenyl}methanol]: in assay [1], the “PI3Kδ @ 0.1 μM (% Inh)” value is 15.60 % Inh, the “PI3Kδ @ 1 μM (% Inh)” value was determined as 48.96 % Inh and half-maximal inhibition (IC50) was put at 10400 nM. In assay [2], the “BTK @ 0.1 μM (% Inh)” value was determined as 14.00 % Inh, the “BTK @ 1 μM (% Inh)” value is 50.29 % Inh and inhibition was half-maximal at 2090 nM (IC50).
As to `NC(=O)/C=C/c1nn(C2Cc3ccccc3C2)c2ncnc(N)c12` [Compound No. 58, (2E)-3-[4-amino-1-(2,3-dihydro-1H-inden-2-yl)-1H-pyrazolo[3,4-d]pyrimidin-3-yl]prop-2-enamide], in assay [1], the “PI3Kδ @ 0.1 μM (% Inh)” value turned out to be 33.15 % Inh and the “PI3Kδ @ 1 μM (% Inh)” value amounted to 44.88 % Inh. For the same molecule, in assay [2], the “BTK @ 0.1 μM (% Inh)” value is given as 18.0 % Inh and the “BTK @ 1 μM (% Inh)” value came to 43.79 % Inh.
`CC(=O)Nc1cccc(-c2nn(C3Cc4ccccc4C3)c3ncnc(N)c23)c1` [Compound No. 59, N-{3-[4-amino-1-(2,3-dihydro-1H-inden-2-yl)-1H-pyrazolo[3,4-d]pyrimidin-3-yl]phenyl}acetamide]: in assay [1], the “PI3Kδ @ 0.1 μM (% Inh)” value came out at 17.93 % Inh and the “PI3Kδ @ 1 μM (% Inh)” value was 5.79 % Inh. In assay [2], the “BTK @ 0.1 μM (% Inh)” value is on record as 14.08 % Inh and the “BTK @ 1 μM (% Inh)” value amounted to 19.76 % Inh.
Regarding `CC(=O)Nc1cc(F)cc(-c2nn(C3Cc4ccccc4C3)c3ncnc(N)c23)c1` [Compound No. 60, N-{3-[4-amino-1-(2,3-dihydro-1H-inden-2-yl)-1H-pyrazolo[3,4-d]pyrimidin-3-yl]-5-fluorophenyl}acetamide], in assay [1], the “PI3Kδ @ 0.1 μM (% Inh)” value is reported as 10.65 % Inh and the “PI3Kδ @ 1 μM (% Inh)” value came out at 31.35 % Inh. Besides, in assay [2], the “BTK @ 0.1 μM (% Inh)” value is reported as 16.91 % Inh and the “BTK @ 1 μM (% Inh)” value turned out to be 30.02 % Inh.
The corresponding values for `COc1cncc(-c2nn(C3Cc4ccccc4C3)c3ncnc(N)c23)c1` [Compound No. 61, 1-(2,3-dihydro-1H-inden-2-yl)-3-(5-methoxypyridin-3-yl)-1H-pyrazolo[3,4-d]pyrimidin-4-amine] are 32.36 % Inh, 71.04 % Inh, 16.63 % Inh and 45.41 % Inh.
Take `COc1cc(F)cc(-c2cn(C3Cc4ccccc4C3)c3ncnc(N)c23)c1` [Compound No. 62, 7-(2,3-dihydro-1H-inden-2-yl)-5-(3-fluoro-5-methoxyphenyl)-7H-pyrrolo[2,3-d]pyrimidin-4-amine]: in assay [1], the “PI3Kδ @ 0.1 μM (% Inh)” value turned out to be 17.28 % Inh and the “PI3Kδ @ 1 μM (% Inh)” value worked out at 43.03 % Inh. For the same molecule, in assay [2], the “BTK @ 0.1 μM (% Inh)” value is on record as 57.13 % Inh and the “BTK @ 1 μM (% Inh)” value was 91.61 % Inh.
`COc1cc(-c2nn(C3Cc4ccccc4C3)c3ncnc(N)c23)ccc1N` [Compound No. 66, 3-(4-amino-3-methoxyphenyl)-1-(2,3-dihydro-1H-inden-2-yl)-1H-pyrazolo[3,4-d]pyrimidin-4-amine]: in assay [1], the “PI3Kδ @ 0.1 μM (% Inh)” value is 17.08 % Inh, the “PI3Kδ @ 1 μM (% Inh)” value is listed as 53.69 % Inh and the IC50 was determined as 461 nM. In assay [2], the “BTK @ 0.1 μM (% Inh)” value is reported as 69.93 % Inh, the “BTK @ 1 μM (% Inh)” value was 95.07 % Inh and the IC50 was found to be 25.3 nM.
Consider `COc1cc(-c2nn(C3Cc4ccccc4C3)c3ncnc(N)c23)ccc1C(F)(F)F` [Compound No. 69, 1-(2,3-dihydro-1H-inden-2-yl)-3-[3-methoxy-4-(trifluoromethyl)phenyl]-1H-pyrazolo[3,4-d]pyrimidin-4-amine], for which, in assay [1], the “PI3Kδ @ 0.1 μM (% Inh)” value was determined as 4.96 % Inh, the “PI3Kδ @ 1 μM (% Inh)” value amounted to 60.21 % Inh and inhibition was half-maximal at 328 nM (IC50). Besides, in assay [2], the “BTK @ 0.1 μM (% Inh)” value is given as 19.61 % Inh, the “BTK @ 1 μM (% Inh)” value is 61.7 % Inh and the IC50 was 791 nM.
For the molecule `Nc1ncnc2c1c(-c1ccnc3[nH]ccc13)nn2C1Cc2ccccc2C1` [Compound No. 70, 1-(2,3-dihydro-1H-inden-2-yl)-3-{1H-pyrrolo[2,3-b]pyridin-4-yl}-1H-pyrazolo[3,4-d]pyrimidin-4-amine], in assay [1], the “PI3Kδ @ 0.1 μM (% Inh)” value was 9.29 % Inh and the “PI3Kδ @ 1 μM (% Inh)” value came to 56.41 % Inh. In addition, in assay [2], the “BTK @ 0.1 μM (% Inh)” value came out at 12.11 % Inh and the “BTK @ 1 μM (% Inh)” value is on record as 36.56 % Inh.
Take `CCOc1ccc(-c2nn(C3Cc4ccccc4C3)c3ncnc(N)c23)cc1OC` [Compound No. 71, 1-(2,3-dihydro-1H-inden-2-yl)-3-(4-ethoxy-3-methoxyphenyl)-1H-pyrazolo[3,4-d]pyrimidin-4-amine]: in assay [1], the “PI3Kδ @ 0.1 μM (% Inh)” value was determined as 47.56 % Inh, the “PI3Kδ @ 1 μM (% Inh)” value turned out to be 89.24 % Inh and the IC50 came to 63.9 nM. Also, in assay [2], the “BTK @ 0.1 μM (% Inh)” value is recorded as 24.51 % Inh, the “BTK @ 1 μM (% Inh)” value came to 71.58 % Inh and 392 nM corresponded to half-maximal inhibition (IC50).
Consider `Nc1ncnc2c1c(-c1cc(O)cc(OC(F)(F)F)c1)nn2C1Cc2ccccc2C1` [Compound No. 72, 3-[4-amino-1-(2,3-dihydro-1H-inden-2-yl)-1H-pyrazolo[3,4-d]pyrimidin-3-yl]-5-(trifluoromethoxy)phenol], for which, in assay [1], the “PI3Kδ @ 0.1 μM (% Inh)” value was 55.46 % Inh and the “PI3Kδ @ 1 μM (% Inh)” value came to 85.89 % Inh. In assay [2], the “BTK @ 0.1 μM (% Inh)” value is 6.81 % Inh and the “BTK @ 1 μM (% Inh)” value was determined as 7.63 % Inh.
Turning to `COc1ccc(-c2nn(C3Cc4ccccc4C3)c3ncnc(N)c23)cc1N` [Compound No. 73, 3-(3-amino-4-methoxyphenyl)-1-(2,3-dihydro-1H-inden-2-yl)-1H-pyrazolo[3,4-d]pyrimidin-4-amine], in assay [1], the “PI3Kδ @ 0.1 μM (% Inh)” value is recorded as 14.37 % Inh, the “PI3Kδ @ 1 μM (% Inh)” value is recorded as 52.39 % Inh and the half-inhibitory concentration (IC50) came to 325 nM. Further, in assay [2], the “BTK @ 0.1 μM (% Inh)” value was 72.03 % Inh; the “BTK @ 1 μM (% Inh)” value turned out to be 95.31 % Inh; the midpoint of inhibition, the IC50, lay at 30.5 nM.
`Nc1ncnc2c1c(-c1ccc3c(c1)OCCCO3)nn2C1Cc2ccccc2C1` [Compound No. 74, 1-(2,3-dihydro-1H-inden-2-yl)-3-(3,4-dihydro-2H-1,5-benzodioxepin-7-yl)-1H-pyrazolo[3,4-d]pyrimidin-4-amine]: in assay [1], the “PI3Kδ @ 0.1 μM (% Inh)” value is on record as 10.99 % Inh and the “PI3Kδ @ 1 μM (% Inh)” value is 65.15 % Inh. Besides, in assay [2], the “BTK @ 0.1 μM (% Inh)” value was 10.82 % Inh and the “BTK @ 1 μM (% Inh)” value was determined as 33.05 % Inh.
Regarding `Nc1ncnc2c1c(-c1ccc3c(c1)OC(F)(F)O3)nn2C1Cc2ccccc2C1` [Compound No. 75, 3-(2,2-difluoro-2H-1,3-benzodioxol-5-yl)-1-(2,3-dihydro-1H-inden-2-yl)-1H-pyrazolo[3,4-d]pyrimidin-4-amine], in assay [1], the “PI3Kδ @ 0.1 μM (% Inh)” value is given as −0.46 % Inh and the “PI3Kδ @ 1 μM (% Inh)” value is 15.57 % Inh. In assay [2], the “BTK @ 0.1 μM (% Inh)” value is on record as 10.92 % Inh and the “BTK @ 1 μM (% Inh)” value is recorded as 29.0 % Inh.
Take `CCOc1cc(-c2nn(C3Cc4ccccc4C3)c3ncnc(N)c23)ccc1OC(F)(F)F` [Compound No. 76, 1-(2,3-dihydro-1H-inden-2-yl)-3-[3-ethoxy-4-(trifluoromethoxy)phenyl]-1H-pyrazolo[3,4-d]pyrimidin-4-amine]: in assay [1], the “PI3Kδ @ 0.1 μM (% Inh)” value was −13.69 % Inh and the “PI3Kδ @ 1 μM (% Inh)” value came out at 13.55 % Inh. Further, in assay [2], the “BTK @ 0.1 μM (% Inh)” value came out at 5.47 % Inh and the “BTK @ 1 μM (% Inh)” value is 6.5 % Inh.
